Results reported in US12600726B2, “Antagonists of the muscarinic acetylcholine receptor M4” (Vanderbilt University, priority 2017, dated 2026).
pIC50: −log10 of the molar value.

Key:
Mouse M4 = molecular target: T1, Mouse M4 (Mus musculus, UniProt P32211); assay: mAChR M4 cell-based functional calcium flux assay (mouse M4/Gqi5/CHO cells); details: for Emin (mouse M4): % ACh maximum at 30 μM; for pIC50: decrease of the response to an EC80 concentration of acetylcholine
T1 construct: expressed in transfected cells; host or cells: CHO-K1 (ATCC), stably expressing M4 and Gqi5
T1 sequence (P32211 1-479): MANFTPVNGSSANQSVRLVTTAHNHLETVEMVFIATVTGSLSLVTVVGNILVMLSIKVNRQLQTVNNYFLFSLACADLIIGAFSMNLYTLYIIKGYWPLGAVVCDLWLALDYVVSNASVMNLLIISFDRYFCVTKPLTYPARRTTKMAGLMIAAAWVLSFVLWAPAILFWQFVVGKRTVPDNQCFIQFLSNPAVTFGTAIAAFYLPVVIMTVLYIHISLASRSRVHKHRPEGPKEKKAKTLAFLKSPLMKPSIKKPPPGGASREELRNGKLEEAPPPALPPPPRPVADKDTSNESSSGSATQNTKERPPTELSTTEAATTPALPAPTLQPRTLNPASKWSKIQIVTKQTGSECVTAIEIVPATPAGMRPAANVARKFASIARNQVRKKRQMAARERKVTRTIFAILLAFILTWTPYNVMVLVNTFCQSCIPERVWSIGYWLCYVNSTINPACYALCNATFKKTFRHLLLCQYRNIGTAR
Protocol: Human, rat, or mouse M4. cDNA, along with the chimeric G protein Gqi5, were transfected into Chinese hamster ovary (CHO-K1) cells purchased from the American Type Culture Collection using Lipofectamine2000. M4/Gqi5/CHO cells were grown in Ham's F-12 medium containing 10% heat-inactivated fetal bovine serum (FBS), 20 mM HEPES, 500 μg/mL G418 sulfate, and 200 μg/mL Hygromycin B.
For high throughput measurement of agonist-evoked increases in intracellular calcium, CHO-K1 cells stably expressing muscarinic receptors were plated in growth medium lacking G418 and hygromycin at 15,000 cells/20 μL/well in Greiner 384-well black-walled, tissue culture (TC)-treated, clear-bottom plates (VWR). Cells were incubated overnight at 37° C. and 5% CO2. The next day, cells were washed using an ELX 405 (BioTek) with assay buffer; the final volume was then aspirated to 20 μL. Next, 20 μL of a 2.3 μM stock of Fluo-4/acetoxymethyl ester (Invitrogen, Carlsbad, CA), prepared as a 2.3 mM stock in DMSO and mixed in a 1:1 ratio with 10% (w/v) Pluronic F-127 and diluted in assay buffer, was added to the wells and the cell plates were incubated for 50 min at 37° C. and 5% CO2. Dye was removed by washing with the ELX 405 and the final volume was aspirated to 20 μL. Compound master plates were formatted in a 10 point concentration-response curve (CRC) format (1:3 dilutions) in 100% DMSO with a starting concentration of 10 or 1 mM using a BRAVO liquid handler (Agilent). Test compound CRCs were then transferred to daughter plates (240 nL) using the Echo acoustic plate reformatter (Labcyte, Sunnyvale, CA) and then diluted into assay buffer (40 μL) to a 2× stock using a Thermo Fisher Combi (Thermo Fisher Scientific, Waltham, MA).
Calcium flux was measured using the Functional Drug Screening System (FDSS) 6000 or 7000 (Hamamatsu Corporation, Tokyo, Japan) as an increase in the fluorescent static ratio. Compounds were applied to cells (20 μL, 2×) using the automated system of the FDSS at 2 seconds into the protocol and the data were collected at 1 Hz. At 143 s, 10 μL of an EC20 concentration of the muscarinic receptor agonist acetylcholine was added (5×), followed by the addition of 12 μL of an EC80 concentration of acetylcholine at the 268 s time point (5×). Agonist activity was analyzed as a concentration-dependent increase in calcium mobilization upon compound addition. Positive allosteric modulator activity was analyzed as a concentration-dependent increase in the EC20 acetylcholine response. Antagonist activity was analyzed as a concentration-dependent decrease in the EC80 acetylcholine response; for the purposes of the tables herein, an IC50 (inhibitory concentration 50) was calculated as a concentration-dependent decrease of the response elicited by an EC80 concentration of acetylcholine. Concentration-response curves were generated using a four-parameter logistical equation in XLFit curve fitting software (IDBS, Bridgewater, NJ) for Excel (Microsoft, Redmond, WA) or Prism (GraphPad Software, Inc., San Diego, CA) or the Dotmatics software platform (Dotmatics, Bishop's Stortford, UK).
Compounds were synthesized as described above. Activity (IC50 and Emin) was determined in the mAChR M4 cell-based functional assay as described above and the data are shown in Table 2 and Table 3. The compound number corresponds to the compound numbers used in the examples and Tables 1 and 1.1.

[1] = test system: haloperidol-induced catalepsy; assay: haloperidol-induced catalepsy, a model of parkinsonian motor disability; type: in vivo, mice
Source text: Furthermore, haloperidol-induced catalepsy, a model of parkinsonian motor disability, is reduced in M4 knockout mice as compared to wild-type controls. […] The reversal by scopolamine was uncommonly robust and more pronounced than we observe with agents targeting a number of other targets being evaluated for potential antiparkinsonian effects, including metabotropic glutamate (mGlu) receptors mGlu4 or mGlu5, A2A adenosine receptors, and NMDA receptors. […] Taken together with the extensive studies of M4 modulation of basal ganglia and motor function, these studies provide compelling evidence that M4 is the dominant mAChR subtype involved in the antiparkinsonian effects of non-selective mAChR antagonists and provide support for discovery and development of selective M4 antagonists for treatment of neurodegenerative disease such as PD, dystonia, tardive dyskinesia and other movement disorders.

SMILES	Emin (mouse M4) (Mouse M4) [%]	pIC50 (Mouse M4)	IC50 (Mouse M4; in μM, decrease of the EC80 acetylcholine response) [µM]	reduction of haloperidol-induced catalepsy ([1]; M4 KO mice)	reversal of haloperidol-induced catalepsy ([1]; WT mice)
CC(C)(C)CCN1CCC2(CC1)CC2CNc1ccc2nccn2n1 (stereo not drawn) [Compound 102, N-[[6-(3,3-dimethylbutyl)-6-azaspiro[2.5]octan-2-yl]methyl]imidazo[1,2-b]pyridazin-6-amine]	8	5.89	–	–	–
C1=CC2CC1CC2CN1CCC2(CC1)CC2CNc1ccc2nncn2n1 (stereo not drawn) [Compound 103, N-[[6-(5-bicyclo[2.2.1]hept-2-enylmethyl)-6-azaspiro[2.5]octan-2-yl]methyl]-[1,2,4]triazolo[4,3-b]pyridazin-6-amine]	13	5.82	–	–	–
CC(C)(C)CCN1CCC2(CC1)CC2CNc1ccc2nncn2n1 (stereo not drawn) [Compound 104, N-[[6-(3,3-dimethylbutyl)-6-azaspiro[2.5]octan-2-yl]methyl]-[1,2,4]triazolo[4,3-b]pyridazin-6-amine]	17	5.55	–	–	–
c1cc2nncn2nc1NCC1CC12CCN(CC1CCCCC1)CC2 (stereo not drawn) [Compound 105, N-[[6-(cyclohexylmethyl)-6-azaspiro[2.5]octan-2-yl]methyl]-[1,2,4]triazolo[4,3-b]pyridazin-6-amine]	37	–	> 10	–	–
Fc1ccc(Cl)c(-c2ccc(NC[C@@H]3CC34CCN(CC3CCCOC3)CC4)nn2)c1 (stereo partly drawn) [Compound 106, (R)-6-(2-chloro-5-fluoro-phenyl)-N-[[6-(tetrahydropyran-3-ylmethyl)-6-azaspiro[2.5]octan-2-yl]methyl]pyridazin-3-amine]	9	6.17	–	–	–
CN1[C@@H]2C[C@@H](OC(=O)[C@H](CO)c3ccccc3)C[C@H]1[C@@H]1O[C@@H]12 [scopolamine]	–	–	–	ineffective	completely reversed
